Assay results taken from PubChem BioAssay AID2060901 (Molecular Pharmacology Branch, DTP, NCI, 2025).
One block for each compound: values may come before it.

System: 422866-222-R5-J1-PDC complex spheroids viability
Test: Anticancer human tumor 422866-222-R5-J1-PDC patient-derived pancreatic adenocarcinoma cell line growth inhibition [RAS]
Conditions: for IC50: curve of first compound; for viability, T/C: stronger effect = lower value
Summary of the method: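 Multi-cell-type spheroids: tumor cells plus HUVEC endothelial cells and mesenchymal stem cells. RAS-pathway inhibitors were combined with targeted agents, each dosed in half-log steps down from clinical Cmax, or from 10 microM when Cmax was unknown.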

[1] = second compound 0.000949 µM, first compound 0.00316 µM
[2] = second compound 0.000949 µM, first compound 0.01 µM
[3] = second compound 0.000949 µM, first compound 0.0316 µM
[4] = second compound 0.000949 µM, first compound 0.1 µM
[5] = second compound 0.000949 µM, first compound 0.316 µM
[6] = second compound 0.000949 µM, first compound 1 µM
[7] = second compound 0.003 µM, first compound 0.00316 µM
[8] = second compound 0.003 µM, first compound 0.01 µM
[9] = second compound 0.003 µM, first compound 0.0316 µM
[10] = second compound 0.003 µM, first compound 0.1 µM
[11] = second compound 0.003 µM, first compound 0.316 µM
[12] = second compound 0.003 µM, first compound 1 µM
[13] = second compound 0.00949 µM, first compound 0.00316 µM
[14] = second compound 0.00949 µM, first compound 0.01 µM
[15] = second compound 0.00949 µM, first compound 0.0316 µM
[16] = second compound 0.00949 µM, first compound 0.1 µM
[17] = second compound 0.00949 µM, first compound 0.316 µM
[18] = second compound 0.00949 µM, first compound 1 µM
[19] = second compound 0.03 µM, first compound 0.00316 µM
[20] = second compound 0.03 µM, first compound 0.01 µM
[21] = second compound 0.03 µM, first compound 0.0316 µM
[22] = second compound 0.03 µM, first compound 0.1 µM
[23] = second compound 0.03 µM, first compound 0.316 µM
[24] = second compound 0.03 µM, first compound 1 µM
[25] = second compound 0.0949 µM, first compound 0.00316 µM
[26] = second compound 0.0949 µM, first compound 0.01 µM
[27] = second compound 0.0949 µM, first compound 0.0316 µM
[28] = second compound 0.0949 µM, first compound 0.1 µM
[29] = second compound 0.0949 µM, first compound 0.316 µM
[30] = second compound 0.0949 µM, first compound 1 µM
[31] = second compound 0.3 µM, first compound 0.00316 µM
[32] = second compound 0.3 µM, first compound 0.01 µM
[33] = second compound 0.3 µM, first compound 0.0316 µM
[34] = second compound 0.3 µM, first compound 0.1 µM
[35] = second compound 0.3 µM, first compound 0.316 µM
[36] = second compound 0.3 µM, first compound 1 µM
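Further: spheroids exposed to compounds for 7 days.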
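Wherever viability, T/C is given: 100% = DMSO vehicle control viability.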

IC50 (second compound 0.000949 µM): < 3.16 nM
IC50 (second compound 0.003 µM): < 3.16 nM
IC50 (second compound 0.00949 µM): < 3.16 nM
IC50 (second compound 0.03 µM): < 3.16 nM
IC50 (second compound 0.0949 µM): < 3.16 nM
IC50 (second compound 0.3 µM): < 3.16 nM
SMILES: Nc1ccn(C2OC(CO)C(O)C2(F)F)c(=O)n1 (stereo not drawn) + CCn1c(-c2cc(N3CCN(C)CC3)cnc2C(C)OC)c2c3cc(ccc31)-c1csc(n1)CC(NC(=O)C1CC1C)C(=O)N1CCCC(N1)C(=O)OCC(C)(C)C2
viability, T/C [1]: 30.8%
viability, T/C [2]: 27.9%
viability, T/C [3]: 25.3%
viability, T/C [4]: 24.1%
viability, T/C [5]: 22.2%
viability, T/C [6]: 19.4%
viability, T/C [7]: 25.6%
viability, T/C [8]: 23.5%
viability, T/C [9]: 20.5%
viability, T/C [10]: 16.5%
viability, T/C [11]: 18.6%
viability, T/C [12]: 17.4%
viability, T/C [13]: 20.4%
viability, T/C [14]: 21.1%
viability, T/C [15]: 20.4%
viability, T/C [16]: 16.3%
viability, T/C [17]: 15.2%
viability, T/C [18]: 15.8%
viability, T/C [19]: 18.9%
viability, T/C [20]: 20.1%
viability, T/C [21]: 17.4%
viability, T/C [22]: 16.1%
viability, T/C [23]: 15.8%
viability, T/C [24]: 14.7%
viability, T/C [25]: 19.3%
viability, T/C [26]: 20.8%
viability, T/C [27]: 16.7%
viability, T/C [28]: 15.6%
viability, T/C [29]: 16.6%
viability, T/C [30]: 16.4%
viability, T/C [31]: 20%
viability, T/C [32]: 20.4%
viability, T/C [33]: 18.5%
viability, T/C [34]: 18.7%
viability, T/C [35]: 18.9%
viability, T/C [36]: 15.4%

IC50 (second compound 0.00316 µM): < 31.6 nM
IC50 (second compound 0.01 µM): < 31.6 nM
IC50 (second compound 0.0316 µM): < 31.6 nM
IC50 (second compound 0.1 µM): < 31.6 nM
IC50 (second compound 0.316 µM): < 31.6 nM
IC50 (second compound 1 µM): < 31.6 nM
SMILES: CC(C)NCC(C(=O)N1CCN(c2ncnc3c2C(C)CC3O)CC1)c1ccc(Cl)cc1 (stereo not drawn) + C=CC(=O)N1CCN(c2nc(OCC3CCCN3C)nc3c(F)c(-c4nc(N)cc(C)c4C(F)(F)F)c(Cl)cc23)C(C)C1
viability, T/C (second compound 0.00316 µM, first compound 0.0316 µM): 27.2%
viability, T/C (second compound 0.00316 µM, first compound 0.1 µM): 32.1%
viability, T/C (second compound 0.00316 µM, first compound 0.316 µM): 19.7%
viability, T/C (second compound 0.00316 µM, first compound 1 µM): 17%
viability, T/C (second compound 0.00316 µM, first compound 3.16 µM): 16.7%
viability, T/C (second compound 0.00316 µM, first compound 10 µM): 16.7%
viability, T/C (second compound 0.01 µM, first compound 0.0316 µM): 23.3%
viability, T/C (second compound 0.01 µM, first compound 0.1 µM): 24.8%
viability, T/C (second compound 0.01 µM, first compound 0.316 µM): 17.9%
viability, T/C (second compound 0.01 µM, first compound 1 µM): 12.2%
viability, T/C (second compound 0.01 µM, first compound 3.16 µM): 12.6%
viability, T/C (second compound 0.01 µM, first compound 10 µM): 13.3%
viability, T/C (second compound 0.0316 µM, first compound 0.0316 µM): 27.9%
viability, T/C (second compound 0.0316 µM, first compound 0.1 µM): 22%
viability, T/C (second compound 0.0316 µM, first compound 0.316 µM): 14.4%
viability, T/C (second compound 0.0316 µM, first compound 1 µM): 14.9%
viability, T/C (second compound 0.0316 µM, first compound 3.16 µM): 14.2%
viability, T/C (second compound 0.0316 µM, first compound 10 µM): 14.3%
viability, T/C (second compound 0.1 µM, first compound 0.0316 µM): 21.6%
viability, T/C (second compound 0.1 µM, first compound 0.1 µM): 19.2%
viability, T/C (second compound 0.1 µM, first compound 0.316 µM): 15.2%
viability, T/C (second compound 0.1 µM, first compound 1 µM): 12%
viability, T/C (second compound 0.1 µM, first compound 3.16 µM): 13%
viability, T/C (second compound 0.1 µM, first compound 10 µM): 12.8%
viability, T/C (second compound 0.316 µM, first compound 0.0316 µM): 24.1%
viability, T/C (second compound 0.316 µM, first compound 0.1 µM): 16.4%
viability, T/C (second compound 0.316 µM, first compound 0.316 µM): 14.8%
viability, T/C (second compound 0.316 µM, first compound 1 µM): 13.6%
viability, T/C (second compound 0.316 µM, first compound 3.16 µM): 12.7%
viability, T/C (second compound 0.316 µM, first compound 10 µM): 16.6%
viability, T/C (second compound 1 µM, first compound 0.0316 µM): 23.6%
viability, T/C (second compound 1 µM, first compound 0.1 µM): 15.2%
viability, T/C (second compound 1 µM, first compound 0.316 µM): 16.7%
viability, T/C (second compound 1 µM, first compound 1 µM): 12.5%
viability, T/C (second compound 1 µM, first compound 3.16 µM): 13.9%
viability, T/C (second compound 1 µM, first compound 10 µM): 12.6%

IC50 (second compound 0.000949 µM): < 3.16 nM
IC50 (second compound 0.003 µM): < 3.16 nM
IC50 (second compound 0.00949 µM): < 3.16 nM
IC50 (second compound 0.03 µM): < 3.16 nM
IC50 (second compound 0.0949 µM): < 3.16 nM
IC50 (second compound 0.3 µM): < 3.16 nM
SMILES: O=C(c1ccc(F)c(F)c1Nc1ccc(I)cc1F)N1CC(O)([C@@H]2CCCCN2)C1 + CCn1c(-c2cccnc2C(C)OC)c2c3cc(ccc31)N1CCOC(CC(NC(=O)C(C(C)C)N(C)C(=O)C3(F)CCN(C(=O)C#CC(C)(C)N(C)C)CC3)C(=O)N3CCCC(N3)C(=O)OCC(C)(C)C2)C1
viability, T/C [1]: 27.1%
viability, T/C [2]: 26.5%
viability, T/C [3]: 21.4%
viability, T/C [4]: 16.9%
viability, T/C [5]: 14.8%
viability, T/C [6]: 14%
viability, T/C [7]: 23.4%
viability, T/C [8]: 17.8%
viability, T/C [9]: 16.9%
viability, T/C [10]: 12.3%
viability, T/C [11]: 10.9%
viability, T/C [12]: 11.7%
viability, T/C [13]: 26.2%
viability, T/C [14]: 19.9%
viability, T/C [15]: 16.2%
viability, T/C [16]: 14.1%
viability, T/C [17]: 11.1%
viability, T/C [18]: 9.8%
viability, T/C [19]: 19.6%
viability, T/C [20]: 15.5%
viability, T/C [21]: 14.3%
viability, T/C [22]: 11.5%
viability, T/C [23]: 11.7%
viability, T/C [24]: 9.56%
viability, T/C [25]: 16.5%
viability, T/C [26]: 13.1%
viability, T/C [27]: 13%
viability, T/C [28]: 9.14%
viability, T/C [29]: 11.8%
viability, T/C [30]: 10.4%
viability, T/C [31]: 15.7%
viability, T/C [32]: 13.3%
viability, T/C [33]: 10.9%
viability, T/C [34]: 9.97%
viability, T/C [35]: 12.4%
viability, T/C [36]: 12.1%

IC50 (second compound 0.000949 µM): < 3.16 nM
IC50 (second compound 0.003 µM): < 3.16 nM
IC50 (second compound 0.00949 µM): < 3.16 nM
IC50 (second compound 0.03 µM): < 3.16 nM
IC50 (second compound 0.0949 µM): < 3.16 nM
IC50 (second compound 0.3 µM): < 3.16 nM
SMILES: C=CC(=O)Nc1cc(Nc2nccc(-c3cn(C)c4ccccc34)n2)c(OC)cc1N(C)CCN(C)C + CCn1c(-c2cc(N3CCN(C)CC3)cnc2C(C)OC)c2c3cc(ccc31)-c1csc(n1)CC(NC(=O)C1CC1C)C(=O)N1CCCC(N1)C(=O)OCC(C)(C)C2
viability, T/C [1]: 32.2%
viability, T/C [2]: 25.2%
viability, T/C [3]: 26.4%
viability, T/C [4]: 21.6%
viability, T/C [5]: 23.1%
viability, T/C [6]: 24.7%
viability, T/C [7]: 26.1%
viability, T/C [8]: 20.3%
viability, T/C [9]: 20.2%
viability, T/C [10]: 17.2%
viability, T/C [11]: 16.4%
viability, T/C [12]: 18.9%
viability, T/C [13]: 20.4%
viability, T/C [14]: 17.9%
viability, T/C [15]: 17%
viability, T/C [16]: 14.1%
viability, T/C [17]: 14.5%
viability, T/C [18]: 17.1%
viability, T/C [19]: 19.9%
viability, T/C [20]: 18.6%
viability, T/C [21]: 16.8%
viability, T/C [22]: 14.4%
viability, T/C [23]: 15.1%
viability, T/C [24]: 15.6%
viability, T/C [25]: 20%
viability, T/C [26]: 17.4%
viability, T/C [27]: 19.2%
viability, T/C [28]: 16.9%
viability, T/C [29]: 16.1%
viability, T/C [30]: 18.7%
viability, T/C [31]: 19.3%
viability, T/C [32]: 20.9%
viability, T/C [33]: 19.1%
viability, T/C [34]: 16.5%
viability, T/C [35]: 16.5%
viability, T/C [36]: 20.8%
